Experimental data reported in patent US6511592B1, “Biosensor for pentachlorophenol” (ISIS Innovation Limited, priority 1998, dated 2003).

How the values were obtained:
[1] = biological target: T1, PCPH (Sphingobium chlorophenolicum, UniProt P42535); test: Substrate range of PCPH, oxidation determined by gas chromatography; format: biochemical, Flavobacterum sp. (ATCC 53874); design: made in house; host or cells: E. coli strain DH5a (tac promoter vector)
Text: Samples from the environment contain many other compounds which may be substrates for PCPH and therefore interfere with PCP biosensing. The substrate range of the PCPH enzyme was therefore investigated. The compounds tested as possible substrates were toluene, biphenyl, phenylcyclohexane, 1-phenylcyclohexene, diphenylmethane, bibenzyl and hexadecane, included as a model long-chain alkane.

[2] = biological target: T2, pentachlorophenol hydroxylase (PCPH) (Sphingobium chlorophenolicum, UniProt P42535); conditions: earlier investigation of the substrate range (Orser and co-workers); cited from earlier work
T2 sequence (P42535 2-538): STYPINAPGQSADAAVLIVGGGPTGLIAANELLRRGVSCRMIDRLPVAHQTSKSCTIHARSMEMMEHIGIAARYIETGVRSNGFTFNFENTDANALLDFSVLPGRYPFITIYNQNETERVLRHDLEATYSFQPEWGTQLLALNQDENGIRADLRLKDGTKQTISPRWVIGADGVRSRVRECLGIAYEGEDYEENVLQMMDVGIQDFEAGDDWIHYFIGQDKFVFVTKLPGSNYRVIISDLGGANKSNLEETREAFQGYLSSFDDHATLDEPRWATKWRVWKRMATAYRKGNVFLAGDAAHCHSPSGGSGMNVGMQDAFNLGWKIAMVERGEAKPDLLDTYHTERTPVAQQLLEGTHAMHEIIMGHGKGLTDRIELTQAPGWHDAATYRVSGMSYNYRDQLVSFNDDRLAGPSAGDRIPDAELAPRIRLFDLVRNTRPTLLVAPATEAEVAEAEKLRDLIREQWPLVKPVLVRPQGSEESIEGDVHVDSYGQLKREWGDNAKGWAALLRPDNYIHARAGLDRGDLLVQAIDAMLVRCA

[3] = test system: PCPH; conditions: -800 mV, aerobic, after 30 mins; cyclic voltammetry and gas chromatography of the organic extract
[4] = biological target: T1, PCPH; test: PCP concentration-dependent catalytic current, immobilised PCPH electrode

Row | SMILES | oxidised by PCPH (substrate or not) [1] | substrate of PCPH (oxidised / attacked) [2] | further results
1 | CCCCCCCCCCCCCCCC [hexadecane] | None of the compounds except bibenzyl was oxidised by PCPH | – | –
2 | C1=C(c2ccccc2)CCCC1 [1-phenylcyclohexene] | None of the compounds except bibenzyl was oxidised by PCPH | – | –
3 | Clc1cc(Cl)c(Cl)c(Cl)c1Cl [pentachlorobenzene] | – | not | –
4 | Cc1ccccc1 [toluene] | None of the compounds except bibenzyl was oxidised by PCPH | – | –
5 | c1ccc(Cc2ccccc2)cc1 [diphenylmethane] | None of the compounds except bibenzyl was oxidised by PCPH | – | –
6 | c1ccc(C2CCCCC2)cc1 [phenylcyclohexane] | None of the compounds except bibenzyl was oxidised by PCPH | – | –
7 | c1ccc(-c2ccccc2)cc1 [biphenyl] | None of the compounds except bibenzyl was oxidised by PCPH | – | –
8 | Oc1cccc(Cl)c1Cl [2,3-dichlorophenol] | – | poor substrate | –
9 | c1ccccc1 [benzene] | – | not substrates | –
10 | Oc1c(Cl)c(Cl)c(Cl)c(Cl)c1Cl [PCP, pentachlorophenol] | – | oxidised by PCPH | product of electrochemically driven oxidation by PCPH [3]: showed the presence of TeCH; linear range of concentration dependence of the catalytic current ([4]; PCPH 87 μM in the solution evaporated on the electrode, FIG. 1): ca. 8 μM; linear range of concentration dependence of the catalytic current ([4]; PCPH 196 μM in the solution evaporated on the electrode, FIG. 2): ca. 25 μM
11 | c1ccc(CCc2ccccc2)cc1 [bibenzyl] | a very small amount of product was detected | – | –
